Experimental data published in US20240245633A1, “ROR Gamma Agonists as Enhancers of Protective Immunity” (University of Florida Research Foundation, Incorporated, priority 2015, published 2024).
Marks after values point to notes of the source that are not given here.

Assays:
[1] = target: T1, RORγt LBD pretreated with ursolic acid (Homo sapiens, UniProt P51449); experiment: Differential HDX-MS of RORγt pretreated with ursolic acid ± compound; type: binding
T1 construct: 5 μL of a 10 μM RORγt LBD solution (Apo or in complex with 10-excess compound)
T1 sequence (P51449 269-508 limits assumed): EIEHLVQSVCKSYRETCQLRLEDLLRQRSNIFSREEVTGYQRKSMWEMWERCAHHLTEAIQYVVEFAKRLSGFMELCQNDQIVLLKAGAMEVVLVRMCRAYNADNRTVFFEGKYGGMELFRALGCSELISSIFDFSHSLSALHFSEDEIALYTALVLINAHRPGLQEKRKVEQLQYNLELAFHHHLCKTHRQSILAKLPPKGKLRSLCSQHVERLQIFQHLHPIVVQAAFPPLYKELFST
Description: While the mechanism of action of RORγt agonists on regulation of the immune checkpoint receptor PD-1 is unclear, a correlation between RORγt and PD-1 expression has been observed in PD-1 knockout mice Z Regardless, to gain insights into the structural mechanism for agonist activity we examined the impact of putative agonist ligands on the conformational dynamics of RORγt. To achieve this, we utilized differential hydrogen/deuterium exchange (HDX) mass spectrometry.
HDX-MS. Solution-phase amide HDX was performed with a fully automated system as described previously with minor modifications^30,31. For differential HDX experiments, 5 μL of a 10 μM RORγt LBD solution (Apo or in complex with 10-excess compound) was diluted to 25 μL with D20-containing HDX buffer, and incubated at 4° C. for; 10 s, 30s, 60s, 900s, and 3,600s, Following on-exchange, unwanted forward or back exchange is minimized and the protein is denatured by dilution to 50 μL with 0.1% TFA in 3M urea (held at 4° C., pH 2.5). Samples are then passed across an immobilized pepsin column (prepared in house) at 50 μL min−1 (0.1% TFA, 15° C.) and the resulting peptides are trapped onto a Ce trap cartridge (Thermo Fisher, Hypersil Gold). Peptides were then gradient eluted (4% CH3CN to 40% CH3CN, 0,3% formic acid over 5 minutes, 4° C.) across a 1 mm×50 mm Cia HPLC column (Hypersil Gold, Thermo Fisher) and electrosprayed directly into a high resolution orbitrap mass spectrometer (Exactive, Thermo Fisher). Percent deuterium exchange values for peptide isotopic envelopes at each time point were calculated and processed using HDX Workbench^32 and overlaid onto RORγt crystal structures using pyMOL (DeLano Scientific). HDX data is presented as an average of three individual replicates across […] time points (10s, 60s, 300s, 900s, and 3600s).

Gal4-RORγ [2] = target: T2, Gal4-RORγ (Homo sapiens, UniProt P51449); experiment: cell-based; conditions: HEK-293T, read-out: fold induction of reporter gene expression
T2 sequence (P51449 269-508 limits assumed): T1 sequence (P51449 269-508 limits assumed)

Gal4-RORγ [3] = target: T2, Gal4-RORγ; set-up: RORγt activity after pre-treatment; fold induction of reporter gene expression; other: single concentration 30 μM; induction of luciferase expression at highest concentration of the concentration response curve; other: 30 μM, 2 μM urs; luciferase reporter gene expression; conditions: recently identified putative endogenous agonist; cited from earlier work
Gal4-RORγ [4] = target: T2, Gal4-RORγ; conditions: 30 μM, 2 μM ursolic acid
[5] = test system: differentiated TH17 cells; experiment: TH17 cell differentiation, flow cytometry; type: cell-based, murine; conditions: murine TH17 cells
Procedure: Using flow cytometery surface PD-1 expression was analyzed to determine if the decrease in gene expression of PD-1 correlates to a decrease of the protein on the cell surface, Cell: surface PD-1 expression was measured in murine and human T cell lines as well as in ex vivo differentiated murine TH17 cells. […] Next we examined the impact of compound treatment on differentiated murine TH17 cells. […] To determine if there was an increase in the active T cell population during TH17 cell differentiation, the population of CD62L^−PD1^− double negative cells was measured using flow cytometry. […] To determine if the effects of SR0987 on PD-1 expression would be observed in a human cell line, Jurkat T cells were treated with the compound.
TH17 cell differentiation. For naïve T cell differentiation, CD4^+T cells were enriched by negative selection using a magnetic-activated cell sorter kit (Millipore). Enriched CD4+ T cells activated with 5 μg/mL of plate-abound anti CD3 antibody and 1 μg/mL of anti-CD28 antibody in the presence of 20 μg/mL of anti-IFNγ, 20 μg/mL of anti-IL-4, 1 ng/mL of TGFβ, AND 10 ng/mL of IL-6. Four-five days post differentiation, all cells were stimulated for 5 hr with 5 ng/mL of phorbol-12-myristate-13-acetate (Sigma) and 500 ng/mL of ionomycin (Sigma) contained with brefeldin A solution (eBioscience).

Compound: CC(C)=CCC[C@@H](C)[C@H]1CC[C@H]2[C@@H]3CC=C4C[C@@H](O)CC[C@]4(C)[C@H]3CC[C@]12C [desmosterol]
- protection to solvent exchange in H12 ([1]; RORγt exposed to ursolic acid, then compound): not observed
- Differential HDX kinetics, peptide TEIEHLVQ ([1]; UA pretreated, 268-275, charge 2, H1): −1(4)*
- Differential HDX kinetics, peptide TEIEHLVQSVC ([1]; UA pretreated, 268-278, charge 2, H1): −2(4)*
- Differential HDX kinetics, peptide TEIEHLVQSVCKS ([1]; UA pretreated, 268-280, charge 3, H1): 2(2)*
- Differential HDX kinetics, peptide TEIEHLVQSVCKSYRETCQ ([1]; UA pretreated, 268-286, charge 3, H1): −1(3)*
- Differential HDX kinetics, peptide TEIEHLVQSVCKSYRETCQ ([1]; UA pretreated, 268-286, charge 4, H1): 0(3)*
- Differential HDX kinetics, peptide RLEDL ([1]; UA pretreated, 288-292, charge 1, H2): 10(2)*
- Differential HDX kinetics, peptide RLEDLL ([1]; UA pretreated, 288-293, charge 1, H2): 10(2)*
- Differential HDX kinetics, peptide EVTGYQRKSMWEM ([1]; UA pretreated, 304-316, charge 2, H3/H4): −6(3)*
- Differential HDX kinetics, peptide WERCAHHLTEAIQ ([1]; UA pretreated, 317-329, charge 3, H4): −1(1)*
- Differential HDX kinetics, peptide WERCAHHTEAIQY ([1]; UA pretreated, 317-330, charge 3, H4): 0(1)*
- Differential HDX kinetics, peptide WEGAKRLSGF ([1]; UA pretreated, 331-341, charge 2, H4/H5): −1(2)*
- Differential HDX kinetics, peptide FAKRLSGF ([1]; UA pretreated, 334-341, charge 2, H4/H5): 0(2)*
- Differential HDX kinetics, peptide CQNDQM ([1]; UA pretreated, 345-352, charge 1, H5/H6): 0(1)*
- Differential HDX kinetics, peptide CRAYNADNRTVF ([1]; UA pretreated, 368-377, charge 2, B1): 0(2)*
- Differential HDX kinetics, peptide YNADNRTVF ([1]; UA pretreated, 369-377, charge 2, B1): −1(3)*
- Differential HDX kinetics, peptide FEGKYGGMEL ([1]; UA pretreated, 378-387, charge 2, B2/H7): −1(3)*
- Differential HDX kinetics, peptide FRALGCSEL ([1]; UA pretreated, 388-395, charge 2, H7/H8): −1(2)*
- Differential HDX kinetics, peptide LISSIFDFSHSLSAL ([1]; UA pretreated, 396-410, charge 2, H8): 0(2)*
- Differential HDX kinetics, peptide ISSIFD ([1]; UA pretreated, 397-407, charge 1, H8): −3(2)*
- Differential HDX kinetics, peptide ISSIFDFSHSLSAL ([1]; UA pretreated, 397-410, charge 2, H8): 0(2)*
- Differential HDX kinetics, peptide IFDFSHSLSAL ([1]; UA pretreated, 400-410, charge 2, H8): 4(3)*
- Differential HDX kinetics, peptide DFSHSKSAL ([1]; UA pretreated, 402-410, charge 2, H8): 3(2)*
- Differential HDX kinetics, peptide FSHSLSAL ([1]; UA pretreated, 403-410, charge 2, H8): 0(3)*
- Differential HDX kinetics, peptide AXLPPXGKLRSLCSQ ([1]; UA pretreated, 454-478, charge 3, H11): −1(4)*
- Differential HDX kinetics, peptide HVERLQIFQHLHPIWQ ([1]; UA pretreated, 479-495, charge 2, H11): −6(3)*
- Differential HDX kinetics, peptide AAFPPLYKEL ([1]; UA pretreated, 496-505, charge 2, H12): −4(2)*
- Differential HDX kinetics, peptide AAFPPLYKELF ([1]; UA pretreated, 496-506, charge 2, H12): −3(2)*
- Differential HDX kinetics, peptide HFSEDEIAL ([1]; UA pretreated, charge 2, H9): −1(2)*
- Differential HDX kinetics, peptide QIFQHLHPIWQ ([1]; UA pretreated, charge 2, H11): −3(3)*
- Differential HDX kinetics, peptide TEIEHLVQSVCKSYRETCQL ([1]; UA pretreated, charge 3, H1): −3(4)*
- Differential HDX kinetics, peptide VRMCRAYNADNRTVF ([1]; UA pretreated, charge 3, H6/B1): −1(1)*
- fold induction at 30 µM (Gal4-RORγ [2]): ≥ 2
- restoring RORγt activity in the presence of ursolic acid (Gal4-RORγ [3]): capable of restoring RORγt activity in the presence of ursolic acid
- induction of luciferase expression at highest concentration of the concentration response curve (Gal4-RORγ [4]): ~2 fold
- IL17 production (intracellular staining of IL17A) [5]: trend towards increased IL17 production
- surface PD-1 expression [5]: no effect
